According to US11618747B2, “LXR modulators with bicyclic core moiety” (OrsoBio, Inc., priority 2018, dated 2023):
Like-named read-outs stand apart in the source and are kept apart here.

What was measured:
full length (FL) LXRβ = molecular target: T1, full length (FL) LXRβ (Homo sapiens, UniProt P55055, DUP175-175); test: LXR Gal4 reporter transient transfection assay (FL-M2H Gal4β); assay type: cell-based; details: HEK293 cells, full length LXRβ; read-out: FL-M2H Gal4β (EC50 range)
T1 construct: the full length (FL) proteins of LXRα (amino acids 1-447); NP005684; NP009052; expressed in transfected cells; host or cells: HEK293
T1 sequence (P55055 with tags, fused parts or gaps DUP175-175): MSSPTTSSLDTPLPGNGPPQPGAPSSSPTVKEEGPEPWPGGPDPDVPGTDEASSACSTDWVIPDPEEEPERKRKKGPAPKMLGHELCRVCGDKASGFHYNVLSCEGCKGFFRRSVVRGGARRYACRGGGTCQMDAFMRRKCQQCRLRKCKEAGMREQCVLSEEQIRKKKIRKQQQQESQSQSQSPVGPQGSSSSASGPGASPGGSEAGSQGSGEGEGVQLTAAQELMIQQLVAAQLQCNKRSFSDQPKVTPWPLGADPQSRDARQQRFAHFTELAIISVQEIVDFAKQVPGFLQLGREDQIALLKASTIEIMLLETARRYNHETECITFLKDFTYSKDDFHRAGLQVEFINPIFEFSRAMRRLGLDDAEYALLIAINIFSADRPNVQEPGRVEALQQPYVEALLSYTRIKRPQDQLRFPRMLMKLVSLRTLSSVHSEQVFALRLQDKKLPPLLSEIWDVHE
Summary of the method: (§1)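 Mammalian two-hybrid in HEK293 cells transiently transfected with NFkB-AD-fused FL or LBD LXR plus GAL4-BD-fused SRC1 or NCoR cofactor domains and GAL4-responsive firefly luciferase reporter, Renilla-normalized. Compound added 4 h post-transfection (≤0.2% DMSO), 16 h incubation, luminescence read.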

[1] = Pharmacokinetics in mice after single oral dosing (blood/plasma and liver exposure); assay type: in vivo, mice (C57/bl6/J); details: for oral bioavailability (in words): oral administration
Experimental: The pharmacokinetics of the compounds was assessed in mice after single dosing and oral administrations. Blood/plasma and liver exposure was measured via LC-MS.
The study design was as follows:
Animals: C57/bl6/J (Janvier) males
Diet: standard rodent chow
Animal handling: animals were withdrawn from food at least 12 h before administration
Design: single dose oral administration, n=3 animals per group
Sacrifice: at stated time point (4, 12 or 24 h) after administration
Bioanalytics: LC-MS of liver and blood/plasma samples

[2] = molecular target: T2, LXRβ ligand-binding domain (Homo sapiens, UniProt P55055, DUP175-175); test: TR-FRETβ activity assay (NCoA3 coactivator peptide recruitment); assay type: biochemical; details: TR-FRET, 1 μM 24(S)-25-epoxycholesterol prestimulation; read-out: FRETβ (EC50 range)
T2 construct: amino acids 156-461; NP009052; made in house; host or cells: E. coli
T2 sequence (P55055 with tags, fused parts or gaps DUP175-175 limits assumed): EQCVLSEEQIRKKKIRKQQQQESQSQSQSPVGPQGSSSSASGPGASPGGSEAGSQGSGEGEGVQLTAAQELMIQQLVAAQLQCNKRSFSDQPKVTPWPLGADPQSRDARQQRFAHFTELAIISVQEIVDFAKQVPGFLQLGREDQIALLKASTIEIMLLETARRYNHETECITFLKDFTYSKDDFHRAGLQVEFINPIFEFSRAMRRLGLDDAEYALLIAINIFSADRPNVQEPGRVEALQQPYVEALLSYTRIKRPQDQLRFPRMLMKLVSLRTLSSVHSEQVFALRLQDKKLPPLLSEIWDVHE
Summary of the method: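 Inverse agonism assessed by loss of coactivator recruitment, read as TR-FRET 665/615 nm after 1 h equilibration at 4 °C, in triplicate. Ten-point titration from 50 μM to 0.002 μM against LXRβ LBD (76 nM, GST fusion) prestimulated with 1 μM 24(S)-25-epoxycholesterol, with 400 nM NCoA3 peptide, pH 6.8. Sulfonyl acetic acids kept as 20 mM DMSO stocks with 100 mM TFA.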

[3] = rat liver microsomal assay; cited from earlier work
[4] = human liver microsomal assay; cited from earlier work
[5] = molecular target: T3, ligand-binding domain (LBD) of LXRα (Homo sapiens, UniProt Q13133); test: LXR Gal4 reporter transient transfection assay (LBD-M2H Gal4α); assay type: cell-based; details: HEK293 cells, LXRα LBD; read-out: LBD-M2H Gal4α (EC50 range)
T3 construct: expressed in transfected cells; host or cells: HEK293
T3 sequence (Q13133 155-447): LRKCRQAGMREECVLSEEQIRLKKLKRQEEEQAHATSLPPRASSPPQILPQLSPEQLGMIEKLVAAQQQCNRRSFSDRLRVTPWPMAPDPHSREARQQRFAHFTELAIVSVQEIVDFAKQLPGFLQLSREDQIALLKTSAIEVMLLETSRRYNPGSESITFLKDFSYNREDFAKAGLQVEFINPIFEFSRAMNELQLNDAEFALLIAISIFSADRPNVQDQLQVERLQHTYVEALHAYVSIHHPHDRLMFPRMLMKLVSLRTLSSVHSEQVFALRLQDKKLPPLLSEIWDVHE
Experimental: The tested compounds were usually dissolved, tested and stored as 20 mM stock solutions in DMSO. Since sulfonyl acetic acid derivatives tend to decarboxylate under these conditions, these stock solutions were prepared, tested and stored as 20 mM DMSO stock solutions containing 100 mM trifluoroacetic Acid (5 equivalents). Sulfonyl acetic acid derivatives are shelf stable as solid at rt for long time as reported by Griesbrecht et al. (Synlett 2010:374) or Faucher et al. (J. Med. Chem. 2004; 47:18).
LXR Gal4 Reporter Transient Transfection Assays
LXRα and LXRβ activity status was determined via detection of interaction with coactivator and corepressor proteins in mammalian two-hybrid experiments (M2H). For this, via transient transfection the full length (FL) proteins of LXRα (amino acids 1-447; NP005684; SEQ ID NO:1) or LXRβ-(amino acids 1-461; NP009052; SEQ ID NO:2) or the ligand-binding domains (LBD) of LXRα (amino acids 155-447 SEQ ID NO:3) or LXRβ (amino acids 156-461; SEQ ID NO:4) were expressed from pCMV-AD (Stratagene) as fusions to the transcriptional activation domain of NFkB. As cofactors, domains of either the steroid receptor coactivator 1 (SRC1; amino acids 552-887; SEQ ID NO:5) or of the corepressor NCoR (amino acids 1906-2312; NP006302; SEQ ID NO:6) were expressed as fusions to the DNA binding domain of the yeast transcription factor GAL4 (from pCMV-BD; Stratagene). Interaction was monitored via activation of a coexpressed Firefly Luciferase Reporter gene under control of a promoter containing repetitive GAL4 response elements (vector pFRLuc; Stratagene). Transfection efficiency was controlled via cotransfection of constitutively active pRL-CMV Renila reniformis luciferase reporter (Promega). HEK293 cells were grown in minimum essential medium (MEM) with 2 mM L-glutamine and Earle's balanced salt solution supplemented with 8.3% fetal bovine serum, 0.1 mM non-essential amino acids, 1 mM sodium pyruvate, at 37° C. in 5% CO2. 3.5×10^4 cells/well were plated in 96-well cell culture plates in growth medium supplemented with 8.3% fetal bovine serum for 16-20 h to ˜90% confluency. For transfection, medium was taken off and LXR and cofactor expressing plasmids as well as the reporter plasmids are added in 30 μL OPTIMEM/well including polyethylene-imine (PEI) as vehicle. Typical amounts of plasmids transfected/well: pCMV-AD-LXR (5 ng), pCMV-BD-cofactor (5 ng), pFR-Luc (100 ng), pRL-CMV (0.5 ng). Compound stocks were prepared in DMSO, prediluted in MEM to a total volume of 120 μL, and added 4 h after addition of the transfection mixture (final vehicle concentration not exceeding 0.2%). Cells were incubated for additional 16 h, lysed for 10 min in 1× Passive Lysis Buffer (Promega) and Firefly and Renilla luciferase activities were measured sequentially in the same cell extract using buffers containing D-luciferine and coelenterazine, respectively. Measurements of luminescence were done in a BMG-luminometer.

full length (FL) LXRα = molecular target: T4, full length (FL) LXRα (Homo sapiens, UniProt Q13133); test: LXR Gal4 reporter transient transfection assay (FL-M2H Gal4α); assay type: cell-based; details: HEK293 cells, full length LXRα; read-out: FL-M2H Gal4α (EC50 range)
T4 construct: the full length (FL) proteins of LXRα (amino acids 1-447); NP005684; expressed in transfected cells; host or cells: HEK293
T4 sequence (Q13133 1-447): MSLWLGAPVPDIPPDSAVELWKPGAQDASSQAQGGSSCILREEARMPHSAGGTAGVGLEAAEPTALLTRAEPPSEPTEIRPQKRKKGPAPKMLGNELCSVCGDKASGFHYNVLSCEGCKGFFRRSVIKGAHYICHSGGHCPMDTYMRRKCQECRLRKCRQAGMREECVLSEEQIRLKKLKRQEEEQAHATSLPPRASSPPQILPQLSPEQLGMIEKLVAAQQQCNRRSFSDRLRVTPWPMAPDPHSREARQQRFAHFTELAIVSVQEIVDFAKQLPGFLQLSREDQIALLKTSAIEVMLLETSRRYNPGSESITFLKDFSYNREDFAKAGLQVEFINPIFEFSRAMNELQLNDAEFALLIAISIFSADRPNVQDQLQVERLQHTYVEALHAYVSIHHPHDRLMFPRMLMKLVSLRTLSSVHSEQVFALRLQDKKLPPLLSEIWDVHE
Summary of the method: as §1

[6] = molecular target: T5, ligand-binding domain (LBD) of LXRβ (Homo sapiens, UniProt P55055, DUP175-175); test: LXR Gal4 reporter transient transfection assay (LBD-M2H Gal4β); assay type: cell-based; details: HEK293 cells, LXRβ LBD; read-out: LBD-M2H Gal4β (EC50 range)
T5 construct: LXRβ (amino acids 156-461); expressed in transfected cells; host or cells: HEK293
T5 sequence (P55055 with tags, fused parts or gaps DUP175-175 limits assumed): T2 sequence (P55055 with tags, fused parts or gaps DUP175-175 limits assumed)
Summary of the method: as §1

[7] = 20 mg/kg single oral dose, time point 4 h

| SMILES | blood/plasma exposure [1, 7] | liver exposure [1, 7] | liver/blood ratio [1, 7] | EC50 [2] | EC50 [5] | EC50 [6] | other results |
| --- | --- | --- | --- | --- | --- | --- | --- |
| Cc1ccc(S(=O)(=O)n2c(-c3cccc(-c4ccc(CN5CCN(C)CC5)cc4)c3)c(-c3ccsc3C#N)c3cc(F)ccc32)cc1 [Example 8, 3-(5-Fluoro-2-(4′-((4-methylpiperazin-1-yl)methyl)-[1,1′-biphenyl]-3-yl)-1-tosyl-1H-indol-3-yl)thiophene-2-carbonitrile] | B (B: 300 nM to ≤1 μM) | D (D: >3 μM) | B (B: 3 to ≤10) | 100 to 1000 nM |  |  | EC50 (full length (FL) LXRβ): < 100 nM |
| Cc1cc(C)c(S(=O)(=O)N(Cc2ccc(-c3cccc(S(C)(=O)=O)c3)cc2)Cc2ccc(C(F)(F)F)o2)c(C)c1 [GSK2033, reference compound] |  |  |  |  |  |  | clearance (Clint) [3]: > 1.0 mL/min/mg protein; blood/plasma exposure (below LLOQ, LLOQ given) [1, 7]: (14.4 ng/mL); liver exposure (below LLOQ, LLOQ given) [1, 7]: (9.6 ng/mL); oral bioavailability (in words) [1]: not orally bioavailable; clearance (Clint) [4]: > 1.0 mL/min/mg protein |
| CCOC(=O)c1ccc(CN(Cc2ccc(-c3cccc(S(C)(=O)=O)c3)cc2)S(=O)(=O)c2c(C)cc(C)cc2C)o1 [SR9238, reference compound] |  |  |  |  |  |  | blood/plasma exposure (below LLOQ, LLOQ value not given) [1, 7]: LLOQ; oral bioavailability (in words) [1]: not orally bioavailable |
| N#Cc1sccc1-c1c(-c2cccc(C3CC3C(=O)O)c2)n(S(=O)(=O)c2ccc(Cl)cc2)c2ccc(F)cc12 (stereo not shown) [3/24] | D (D: <100 nM) | C (C: 1 μM to ≤3 μM) | D (D: >30) |  | < 100 nM | < 100 nM | EC50 (full length (FL) LXRα): < 100 nM; EC50 (full length (FL) LXRβ): < 100 nM |
| N#Cc1sccc1-c1c(-c2cccc(N3CC(C(=O)O)C3)c2)n(S(=O)(=O)c2ccc(Cl)cc2)c2ccccc12 [30/7] | D (D: <100 nM) | B (B: 300 nM to ≤1 μM) | D (D: >30) | 100 to 1000 nM | < 100 nM | < 100 nM |  |
| N#Cc1sccc1-c1c(-c2cccc(C3CC3C(=O)O)c2)n(S(=O)(=O)c2ccc(Cl)cc2)c2ccccc12 (stereo not shown) [30/4] | C (C: 100 nM to <300 nM) | C (C: 1 μM to ≤3 μM) | C (C: 10 to ≤30) | 1000 to 10000 nM | 100 to 1000 nM | < 100 nM |  |
| Cc1ccc(S(=O)(=O)n2c(-c3cccc(/C=C/C(=O)O)c3)c(-c3ccsc3C#N)c3ccccc32)cc1 [3/18] |  |  |  | 1000 to 10000 nM | 100 to 1000 nM | < 100 nM |  |
